Earlier results, collected in patent US20050064023A1, “Compound” (priority 2001, published 2005).

Settings: in combination with DOPE

Compound	enhancement compared to the non-disulfide analogs	cellular toxicity compared to DC-Chol liposomes	transfection efficiency compared to DC-Chol liposomes
1,2-dioleyl-sn-glycero-3-succinyl-2-hydroxyethyl-disulfide omithine [DOGSDSO]	up to 50 times		
CC(C)CCC[C@@H](C)[C@H]1CC[C@H]2[C@@H]3CC=C4C[C@@H](OC(=O)CSSCC(=O)NCCN(CCN)CCN)CC[C@]4(C)[C@H]3CC[C@]12C [CHDTAEA, cholesteryl-hemi-dithio-diglycolyl-tris(aminoethyl)-amine]		decrease of cellular toxicity	increase of transfection efficiency
